Measurements reported in PubChem BioAssay AID1963850 (Molecular Pharmacology Branch, DTP, NCI, 2024).

Tested on: 192522-019-R-J2-PDC complex tumor spheroid viability
Assay: Anticancer human tumor 192522-019-R-J2-PDC patient-derived colon adenocarcinoma cell line growth inhibition [POLQ]
Details: for IC50: curve of first compound; for viability, T/C: stronger effect = lower value
How it was run: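 Complex spheroid viability model combining PDC tumour cells with endothelial (HUVEC) and MSC stromal cells. Novobiocin, ART-558 or RP6685 were tested singly and in combination with standard and investigational anticancer drugs. Each was titrated in half-log steps from near clinical Cmax, or from 10 microM where Cmax was unknown.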

[1] = second compound 0.0316 µM, first compound 0.0316 µM
[2] = second compound 0.0316 µM, first compound 0.1 µM
[3] = second compound 0.0316 µM, first compound 0.316 µM
[4] = second compound 0.0316 µM, first compound 1 µM
[5] = second compound 0.0316 µM, first compound 3.16 µM
[6] = second compound 0.0316 µM, first compound 10 µM
[7] = second compound 0.1 µM, first compound 0.0316 µM
[8] = second compound 0.1 µM, first compound 0.1 µM
[9] = second compound 0.1 µM, first compound 0.316 µM
[10] = second compound 0.1 µM, first compound 1 µM
[11] = second compound 0.1 µM, first compound 3.16 µM
[12] = second compound 0.1 µM, first compound 10 µM
[13] = second compound 0.316 µM, first compound 0.0316 µM
[14] = second compound 0.316 µM, first compound 0.1 µM
[15] = second compound 0.316 µM, first compound 0.316 µM
[16] = second compound 0.316 µM, first compound 1 µM
[17] = second compound 0.316 µM, first compound 3.16 µM
[18] = second compound 0.316 µM, first compound 10 µM
[19] = second compound 1 µM, first compound 0.0316 µM
[20] = second compound 1 µM, first compound 0.1 µM
[21] = second compound 1 µM, first compound 0.316 µM
[22] = second compound 1 µM, first compound 1 µM
[23] = second compound 1 µM, first compound 3.16 µM
[24] = second compound 1 µM, first compound 10 µM
[25] = second compound 3.16 µM, first compound 0.0316 µM
[26] = second compound 3.16 µM, first compound 0.1 µM
[27] = second compound 3.16 µM, first compound 0.316 µM
[28] = second compound 3.16 µM, first compound 1 µM
[29] = second compound 3.16 µM, first compound 3.16 µM
[30] = second compound 3.16 µM, first compound 10 µM
[31] = second compound 10 µM, first compound 0.0316 µM
[32] = second compound 10 µM, first compound 0.1 µM
[33] = second compound 10 µM, first compound 0.316 µM
[34] = second compound 10 µM, first compound 1 µM
[35] = second compound 10 µM, first compound 3.16 µM
[36] = second compound 10 µM, first compound 10 µM
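Further: spheroids exposed to drugs for seven days before reading.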
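Wherever viability, T/C is given: 100% = DMSO vehicle control viability in luminescence.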

CC(C)n1c(=O)n(C)c2cnc3cc(F)c(-c4ccc(OCCCN5CCCCC5)nc4)cc3c21 + Cc1cccc(N(C)C(=O)C2C(O)CCN2c2nc(C)cc(C(F)(F)F)c2C#N)c1
IC50 (second compound 0.0316 µM): > 10 µM
IC50 (second compound 0.1 µM): > 10 µM
IC50 (second compound 0.316 µM): > 10 µM
IC50 (second compound 1 µM): > 10 µM
IC50 (second compound 3.16 µM): > 10 µM
IC50 (second compound 10 µM): > 10 µM
viability, T/C [1]: 113%
viability, T/C [2]: 87%
viability, T/C [3]: 102%
viability, T/C [4]: 103%
viability, T/C [5]: 116%
viability, T/C [6]: 99.3%
viability, T/C [7]: 104%
viability, T/C [8]: 99%
viability, T/C [9]: 107%
viability, T/C [10]: 107%
viability, T/C [11]: 99.8%
viability, T/C [12]: 99.5%
viability, T/C [13]: 94%
viability, T/C [14]: 98.4%
viability, T/C [15]: 108%
viability, T/C [16]: 105%
viability, T/C [17]: 127%
viability, T/C [18]: 104%
viability, T/C [19]: 98.9%
viability, T/C [20]: 110%
viability, T/C [21]: 106%
viability, T/C [22]: 123%
viability, T/C [23]: 116%
viability, T/C [24]: 105%
viability, T/C [25]: 92%
viability, T/C [26]: 103%
viability, T/C [27]: 114%
viability, T/C [28]: 118%
viability, T/C [29]: 134%
viability, T/C [30]: 105%
viability, T/C [31]: 105%
viability, T/C [32]: 94.1%
viability, T/C [33]: 117%
viability, T/C [34]: 114%
viability, T/C [35]: 120%
viability, T/C [36]: 110%

CC1COCCN1c1cc(-c2ccnn2C)c2ccnc(-c3ccn[nH]3)c2n1 (stereo not given) + Cc1cccc(N(C)C(=O)C2C(O)CCN2c2nc(C)cc(C(F)(F)F)c2C#N)c1
IC50 (second compound 0.0316 µM): 0.359 µM
IC50 (second compound 0.1 µM): 0.287 µM
IC50 (second compound 0.316 µM): 0.397 µM
IC50 (second compound 1 µM): 0.428 µM
IC50 (second compound 3.16 µM): 0.402 µM
IC50 (second compound 10 µM): 0.373 µM
viability, T/C [1]: 101%
viability, T/C [2]: 73%
viability, T/C [3]: 55.6%
viability, T/C [4]: 32.6%
viability, T/C [5]: 43.4%
viability, T/C [6]: 47.4%
viability, T/C [7]: 108%
viability, T/C [8]: 76.8%
viability, T/C [9]: 49.4%
viability, T/C [10]: 32.8%
viability, T/C [11]: 42.1%
viability, T/C [12]: 52.4%
viability, T/C [13]: 100%
viability, T/C [14]: 77.2%
viability, T/C [15]: 56.5%
viability, T/C [16]: 32.5%
viability, T/C [17]: 37.9%
viability, T/C [18]: 48.8%
viability, T/C [19]: 91.4%
viability, T/C [20]: 89.2%
viability, T/C [21]: 53.1%
viability, T/C [22]: 33%
viability, T/C [23]: 37.7%
viability, T/C [24]: 54.1%
viability, T/C [25]: 95%
viability, T/C [26]: 84%
viability, T/C [27]: 51.7%
viability, T/C [28]: 36.3%
viability, T/C [29]: 44%
viability, T/C [30]: 57.9%
viability, T/C [31]: 94.9%
viability, T/C [32]: 83.1%
viability, T/C [33]: 51.9%
viability, T/C [34]: 33.8%
viability, T/C [35]: 44.2%
viability, T/C [36]: 56.8%

CC1COCCN1c1cc(C2(S(C)(=N)=O)CC2)nc(-c2ccnc3[nH]ccc23)n1 (stereo not given) + Cc1cccc(N(C)C(=O)C2C(O)CCN2c2nc(C)cc(C(F)(F)F)c2C#N)c1
IC50 (second compound 0.0316 µM): 4.75 µM
IC50 (second compound 0.1 µM): 4.15 µM
IC50 (second compound 0.316 µM): 5.85 µM
IC50 (second compound 1 µM): 5.72 µM
IC50 (second compound 3.16 µM): 7.68 µM
IC50 (second compound 10 µM): 7.21 µM
viability, T/C [1]: 112%
viability, T/C [2]: 88%
viability, T/C [3]: 92.8%
viability, T/C [4]: 83.8%
viability, T/C [5]: 59.9%
viability, T/C [6]: 30.1%
viability, T/C [7]: 101%
viability, T/C [8]: 97.8%
viability, T/C [9]: 97.7%
viability, T/C [10]: 89.2%
viability, T/C [11]: 54.8%
viability, T/C [12]: 34.2%
viability, T/C [13]: 106%
viability, T/C [14]: 105%
viability, T/C [15]: 105%
viability, T/C [16]: 90.1%
viability, T/C [17]: 64.5%
viability, T/C [18]: 37.6%
viability, T/C [19]: 97.6%
viability, T/C [20]: 99.2%
viability, T/C [21]: 96%
viability, T/C [22]: 98.1%
viability, T/C [23]: 64.3%
viability, T/C [24]: 36.5%
viability, T/C [25]: 104%
viability, T/C [26]: 100%
viability, T/C [27]: 103%
viability, T/C [28]: 91.9%
viability, T/C [29]: 78.7%
viability, T/C [30]: 41.4%
viability, T/C [31]: 95.5%
viability, T/C [32]: 106%
viability, T/C [33]: 113%
viability, T/C [34]: 98.9%
viability, T/C [35]: 75.7%
viability, T/C [36]: 39.8%

CCc1cc2c(N3CCc4c(cc(Cn5ccnc5)cc4-c4cn(C)nc4C(F)(F)F)C3=O)ccnc2c(OC)n1 + Cc1cccc(N(C)C(=O)C2C(O)CCN2c2nc(C)cc(C(F)(F)F)c2C#N)c1
IC50 (second compound 0.0316 µM): > 10 µM
IC50 (second compound 0.1 µM): > 10 µM
IC50 (second compound 0.316 µM): > 10 µM
IC50 (second compound 1 µM): > 10 µM
IC50 (second compound 3.16 µM): > 10 µM
IC50 (second compound 10 µM): > 10 µM
viability, T/C [1]: 107%
viability, T/C [2]: 93.3%
viability, T/C [3]: 93.9%
viability, T/C [4]: 78.7%
viability, T/C [5]: 82.3%
viability, T/C [6]: 72.7%
viability, T/C [7]: 99.6%
viability, T/C [8]: 90.7%
viability, T/C [9]: 85.4%
viability, T/C [10]: 93%
viability, T/C [11]: 70.7%
viability, T/C [12]: 63.7%
viability, T/C [13]: 108%
viability, T/C [14]: 92.8%
viability, T/C [15]: 89.1%
viability, T/C [16]: 88.5%
viability, T/C [17]: 85.2%
viability, T/C [18]: 72.9%
viability, T/C [19]: 108%
viability, T/C [20]: 95.9%
viability, T/C [21]: 94.6%
viability, T/C [22]: 90.1%
viability, T/C [23]: 90.2%
viability, T/C [24]: 85.3%
viability, T/C [25]: 105%
viability, T/C [26]: 98%
viability, T/C [27]: 96.8%
viability, T/C [28]: 91.2%
viability, T/C [29]: 91.3%
viability, T/C [30]: 82.3%
viability, T/C [31]: 104%
viability, T/C [32]: 98.9%
viability, T/C [33]: 99.2%
viability, T/C [34]: 92.4%
viability, T/C [35]: 88%
viability, T/C [36]: 88.7%

COc1cc2cc(C(=O)CCC(=O)O)sc2cc1OC + Cc1cccc(N(C)C(=O)C2C(O)CCN2c2nc(C)cc(C(F)(F)F)c2C#N)c1
IC50 (second compound 0.0316 µM): > 10 µM
IC50 (second compound 0.1 µM): > 10 µM
IC50 (second compound 0.316 µM): > 10 µM
IC50 (second compound 1 µM): > 10 µM
IC50 (second compound 3.16 µM): > 10 µM
IC50 (second compound 10 µM): > 10 µM
viability, T/C [1]: 114%
viability, T/C [2]: 97.4%
viability, T/C [3]: 94.9%
viability, T/C [4]: 95.8%
viability, T/C [5]: 98.7%
viability, T/C [6]: 92.5%
viability, T/C [7]: 107%
viability, T/C [8]: 99.6%
viability, T/C [9]: 96.1%
viability, T/C [10]: 110%
viability, T/C [11]: 103%
viability, T/C [12]: 107%
viability, T/C [13]: 102%
viability, T/C [14]: 100%
viability, T/C [15]: 93.8%
viability, T/C [16]: 101%
viability, T/C [17]: 104%
viability, T/C [18]: 110%
viability, T/C [19]: 101%
viability, T/C [20]: 106%
viability, T/C [21]: 97.7%
viability, T/C [22]: 108%
viability, T/C [23]: 108%
viability, T/C [24]: 105%
viability, T/C [25]: 108%
viability, T/C [26]: 104%
viability, T/C [27]: 96.3%
viability, T/C [28]: 96.6%
viability, T/C [29]: 101%
viability, T/C [30]: 105%
viability, T/C [31]: 103%
viability, T/C [32]: 102%
viability, T/C [33]: 103%
viability, T/C [34]: 102%
viability, T/C [35]: 111%
viability, T/C [36]: 97.4%
